Measured values published in US20160297830A1, “NOVEL COMPOUNDS USEFUL FOR THE TREATMENT OF BACTERIAL INFECTIOUS DISEASES” (GALAPAGOS NV, priority 2013, published 2016).
Values after ≈ are worked out from the molar mass of the structure shown.

Test system: H. influenza Hi4 efflux pump KO
Assay: Antibacterial activity assay (MIC), H. influenza Hi4
Type: cell-based

SMILES | MIC
COC[C@@H]1[C@@H](O)[C@@H]2[C@H]3C=C[C@@H]4[C@@H](COC)C(=O)O[C@H]([C@H](O)COC)[C@H](C)/C=C(\C)[C@@]24O[C@H]3[C@@H]1OC(=O)c1cc(C)n[nH]1 [Compound 39, 8-O-5-Methyl-1H-Pyrazole-3′-carbonylbranimycin] | > 64 µg/mL
COC/C(=N\OC)[C@H]1OC(=O)[C@H](COC)[C@H]2C=C[C@H]3[C@H]4O[C@]2(/C(C)=C/[C@H]1C)[C@@H]3[C@H](O)[C@@H](COC)[C@H]4OC(=O)c1ccc[nH]1 [Compound 27, 18-Deoxy-18-methoximino-8-O-1H-pyrrole-2′-carbonylbranimycin] | 8 µg/mL (≈ 13.3 µM)
COCC[C@H]1OC(=O)[C@H](COC)[C@H]2C=C[C@H]3[C@H]4O[C@]2(/C(C)=C/[C@H]1C)[C@@H]3[C@H](O)[C@@H](COC)[C@H]4O [Compound 17, 17-Deoxybranimycin] | 8 µg/mL (≈ 17.1 µM)
COC[C@@H](O)[C@H]1OC(=O)[C@H](COC)[C@H]2C=C[C@H]3[C@H]4O[C@]2(/C(C)=C/[C@H]1C)[C@@H]3[C@H](O)[C@@H](C)[C@H]4OC(=O)c1ccc[nH]1 [Compound 3, 8-O-1H-pyrrole-2′-carbonylbaleomycin] | 1 µg/mL (≈ 1.83 µM)
COC[C@@H]1[C@@H](O)[C@@H]2[C@H]3C=C[C@@H]4[C@@H](COC)C(=O)O[C@H]([C@H](O)COC)[C@H](C)/C=C(\C)[C@@]24O[C@H]3[C@@H]1OC(=O)c1cc(C#N)c[nH]1 [Compound 26, 8-O-4-Cyano-1H-pyrrole-2′-carbonylbranimycin] | 8 µg/mL (≈ 13.3 µM)
COC[C@@H](O)[C@H]1OC(=O)[C@H](COC)[C@H]2C=C[C@H]3[C@H]4O[C@]2(/C(C)=C/[C@H]1C)[C@@H]3[C@H](O)[C@@H](C)[C@H]4OC(=O)c1cc(Cl)c[nH]1 [Compound 30, 8-O-4-Chloro-1H-pyrrole-2′-carbonylbaleomycin] | 4 µg/mL (≈ 6.9 µM)
COC[C@@H]1[C@@H](O)[C@@H]2[C@H]3C=C[C@@H]4[C@@H](COC)C(=O)OC[C@H](C)/C=C(\C)[C@@]24O[C@H]3[C@@H]1OC(=O)c1ccc[nH]1 [Compound 22, 17,18-Dinor-8-O-1H-pyrrole-2′-carbonybranimycin] | 32 µg/mL (≈ 63.8 µM)
COCC(=NO)[C@H]1OC(=O)[C@H](COC)[C@H]2C=C[C@H]3[C@H]4O[C@]2(/C(C)=C/[C@H]1C)[C@@H]3[C@H](O)[C@@H](COC)[C@H]4OC(=O)c1cc(F)c[nH]1 [Compound 40, 18-Deoxy-18-oximino-8-O-4-Fluoro-1H-pyrrole-2′-carbonylbranimycin] | 2 µg/mL (≈ 3.3 µM)
COCC(=NO)[C@H]1OC(=O)[C@H](COC)[C@H]2C=C[C@H]3[C@H]4O[C@]2(/C(C)=C/[C@H]1C)[C@@H]3[C@H](O)[C@@H](COC)[C@H]4OC(=O)c1cc(Cl)c[nH]1 [Compound 41, 18-Deoxy-18-oximino-8-O-4-Chloro-1H-pyrrole-2′-carbonylbranimycin] | 8 µg/mL (≈ 12.8 µM)
